# What was measured:
# [1] = test system: THP-1 cells; assay: Cytokine ELISA in PMA/LPS-activated THP-1 cells; type: cell-based, human; details: PMA then LPS
# Experimental: The ability of MMI-0100 ([…]; SEQ ID NO: 1) to inhibit the production of inflammatory cytokines (TNF-α and IL-1β) in vitro was examined using THP-1 cells. Briefly, THP-1 cells were activated with PMA for 24 hours, and treated subsequently with 10 μg of LPS. The amount of inflammatory cytokines (TNF-α and IL-1β, pg/ml) produced in the medium in the presence or absence of increasing concentrations (1 μM, 3 μM, 10 μM, and 30 μM) of MMI-0100 ([…]; SEQ ID NO: 1) was determined by cytokine specific enzyme-linked immunosorbent assay (ELISA). Analysis of inflammatory cytokines (TNF-α and IL-1β) was performed with cytokine-specific ELISA kit (PeproTech, Inc., Rocky Hill, N.J.). The cytokine-specific ELISA employs highly-purified anti-cytokine antibodies (capture antibodies) that are noncovalently adsorbed (“coated”) onto plastic microwell plates. After washings, the immobilized antibodies capture specifically soluble cytokine proteins present in samples applied to the plate. After washing away unbound material, the captured cytokine proteins are detected by biotin-conjugated anti-cytokine antibodies (detection antibodies) followed by an enzyme-labeled avidin or streptavidin reporter. Following addition of a chromogenic (color-developing) substrate-containing solution, the level of colored product generated by the bound, enzyme-linked, detection reagents can be measured spectrophotometrically using an ELISA-plate reader at an appropriate optical density.
# In order to prepare plates for ELISA, capture antibodies (anti-TNF-α or anti-IL-1β antibodies) were diluted with PBS to a concentration of 1 μg/ml. 100 μl of each diluted antibody was added immediately to each well of the ELISA plate. […]
# The standard was diluted from 2 ng/ml to zero in diluent, and 100 μl of the standard or sample was added immediately to each well in triplicate and incubated at room temperature for at least 2 hours. […] The level of colored product generated by the bound, enzyme-linked, detection reagents was measured spectrophotometrically using an ELISA-plate reader at an appropriate optical density.
# [2] = test system: human endothelial cell (EC); assay: MTS cell proliferation assay, endothelial cells; type: cell-based; details: pre-treatment 20 ng/ml TNF-α
# Experimental: (§1) Primary human aortic endothelial cells (HAEC) and primary human aortic smooth muscle cells (HASMC) were obtained from Invitrogen; primary human coronary artery endothelial cells (HCAEC) were obtained from Lonza.
# (§2) All cultures were maintained in 25 cm^2 polystyrene tissue culture flasks in a 37° C., 5% CO2/95% air environment, with cell culture media refreshed every other day. All cells were seeded at a density of 20,000˜30,000 cells/cm^2, as required by the specific experiment, and allowed to grow to 80-90% confluence before being harvested/passaged. Only cells from early passages (numbers 2-8) were utilized in experiments.
# (§3) The CellTiter 96® AQueous Non-Radioactive Cell Proliferation Assay (Promega) was used to assess drug effects on cell proliferation according to the manufacturer's instructions. Briefly, HAECs and HASMCs from early passages were grown to 80-90% confluence in 25 cm^2 tissue culture flasks in a 37° C./5% CO2 incubator prior to harvest. 200 μl of each type of cell suspension (at 20,000 cells/cm^2) was seeded onto separate 96-well plates to yield an approximate 60% confluence per well. Cells were allowed to adhere to the plate surface overnight, followed by addition of 20 ng/ml of TNF-α to stimulate production of inflammatory agents. After a 4-6 hour incubation period, MMI-0100 peptide drug ([…]; SEQ ID NO: 1) was added and cells incubated for another 20-24 hours. Each well was then supplemented with 100 μl of fresh medium and 20 μl of CellTiter 96® AQueous One Solution Reagent and incubated for an additional 1.5-2 hours prior to measuring absorbance of each well at 490 nm with a SoftMax®-equipped plate reader.
# (§4) In order to determine the effect of pharmacological doses of MMI-0100 ([…]; SEQ ID NO: 1) on human endothelial cell (EC) and smooth muscle cell (SMC) proliferation, human EC and SMC cultures were treated with three concentrations (0.25 mM, 0.5 mM, and 1 mM) of MMI-0100 ([…] (SEQ ID NO: 1)) following pre-treatment with TNF-α.
# [3] = test system: mouse lung endothelial cells (MLEC); assay: Murine endothelial cell proliferation by direct cell counting; type: cell-based; details: physiological doses
# Source text: Primary cultures of mouse lung endothelial cells (MLEC) were isolated as previously described (Ackah, E. et al., J. Clin Invest., 2005, 115(8): 2119-27; Muto, A. et al., J. Exp. Med., 2011, 208(3): 561-575). Mouse lung endothelial cells (MLECs) were isolated from 3-week-old wild type mice. Briefly, mice were euthanized with an overdose of ketamine/xylazine and the lungs excised, minced, and digested with 0.1% collagenase in RPMI medium. The digest was homogenized by passing multiple times through a 14-gauge needle, filtered through a 150-μm tissue sieve, and the cell suspension was plated on 0.1% gelatin-coated dishes. Endothelial cells were then isolated by immunoselection with PECAM-1- and ICAM-2-conjugated magnetic beads. After immunoselection with magnetic beads, endothelial cells were immortalized with polyoma middle T-antigen. Isolated MLEC were maintained with EBM-2/EGM-2 MV SingleQuot® Kit Supplement & Growth Factors (Lonza) containing 15% fetal bovine serum. Cell proliferation in MLEC was measured at 24 and 72 hours after MMI-0100 treatment by direct cell counting after trypsin treatment.
# [4] = test system: human smooth muscle cell (SMC); assay: MTS cell proliferation assay, smooth muscle cells; type: cell-based; details: pre-treatment 20 ng/ml TNF-α
# Experimental: as §1, §2, §3, §4
# [5] = Observation of toxicity, tissue erosion or necrosis
sequence,measurement,setting,value
YARAAARQARAKALARQLGVAA [MMI-0100],IL-1β level in the medium,"[1]; 30 μM, PMA/LPS alone about 450 pg/ml",about 100 pg/ml
same,TNF-α level in the medium,"[1]; 30 μM, PMA/LPS alone about 1000 pg/ml",about 300 pg/ml
same,production of pro-inflammatory cytokines (TNF-α and IL-1β),"[1]; 1, 3, 10 and 30 μM","inhibits the production of pro-inflammatory cytokines (i.e., TNF-α and IL-1β) in a dose-dependent manner"
same,EC proliferation vs TNF-α alone control,[2]; 0.25 mM,slightly increased cell proliferation
same,increase in EC proliferation vs TNF-α alone control,[2]; 0.5 mM,30%
same,increase in EC proliferation vs TNF-α alone control,[2]; 1 mM,11%
same,murine EC proliferation,[3],did not induce significant murine EC proliferation
same,SMC proliferation vs TNF-α alone control,[4]; 0.25 mM,slightly increased cell proliferation
same,increase in SMC proliferation vs TNF-α alone control,[4]; 0.5 mM,12%
same,increase in SMC proliferation vs TNF-α alone control,[4]; 1 mM,7%
same,"evidence of toxicity, tissue erosion, or necrosis",[5],"did not show any evidence of toxicity, tissue erosion, or necrosis"
